{
  "source": "patent US8936809B2",
  "about": "“Method for treating prostate diseases based on local delivery of active substances” (Lidds AB, priority 2005, dated 2015)",
  "key": {"[1]": {"system": "androgen dependent tissue (bulbourethral gland)", "assay": "Local anti-androgen effect and side effects after implant into bulbourethral gland of male sheep (Example 2)", "format": "in vivo", "method": "The major purpose of the present animal study was to examine the pharmacokinetics, efficacy and safety of the novel local drug delivery system with 2-hydroxyflutamide, a selective antagonist to the androgen receptor (AR). A ceramic based drug delivery product was administered into an androgen dependent tissue (the bulbourethral gland) in male sheep. In total 11 male sheep were divided into two separate groups. One group was given 2-hydroxyflutamide by the local implant delivery system as a single administration into the bulbourethral gland and was monitored during 2 months. Each sheep in this treatment group received the prostate implant by a single dose of 250 mg. The other group only received ceramic formulation without any active drug substance.\nThe implant drug delivery system was inserted locally, via rectum, into the androgen dependent tissue (bulbourethral gland) through sterile needles during rectal ultrasound guidance. The animals were during anaesthesia throughout the insertion procedure. The sterile ceramic based implant had two major components: calcium sulphate (CaSO4-0.5H2O) and 2-hydroxyflutamide. The composition of the formulation was 250 mg 2-hydroxyflutamide+2.25 g calcium sulphate di-hydrate+5.0 g calcium sulphate hemi-hydrate and it was mixed with solution: 3.5 ml of water solution (with 1% acetic acid and 1% methyl cellulose). […]"}, "in vivo": {"assay": "in vivo", "conditions": "male, Labrador, dog, iv, 25 mg", "method": "First, four male dogs (H1-H4) (Labrador, approx. 1 year of age and weight 30 kg) were given 2-hydroxy-flutamide (25 mg) by single bolus doses intravenously during 30 seconds. The intravenous solution base was sterile saline […], sterile polyethylene glycol 400 46% and ethanol (95%) 6%. Blood samples of 1.0 ml were taken from the Cephalic vein at 5, 10, 15, 30, 60, 90, 120, 240, 360, and 600 minutes. The blood samples were immediately centrifuged at 3000 rpm and the plasma samples were frozen at −80° C. until analysis.\nQuantification of 2-hydroxy-flutamide in plasma and tissue samples was done by HPLC-MS. HPLC was performed with a Surveyor HPLC system equipped with a CTC Pal autosampler. The analytical column was a Zorbax Eclipse XDB-18 (2.1 mm×50 mm, particle size 5 μm) connected to a guard column. The eluent consisted of solvent A (aqueous formic acid 0.1%) and B (acetonitrile), a linear gradient from 25 to 90% of solvent B in 5 minutes was applied. The proportion of solvent B was then lowered to 25% in one minute and was allowed to equilibrate at this level for two minutes prior to the next injection. The volumetric flow-rate was 200 μL/min and the injection volume was 20 μL. The HPLC column outlet was coupled to a TSQ Quantum Ultra tandem triple quadrupole mass spectrometer (ThermoFinnigan, San José, Calif., USA). The transition of m/z 291 [M-H]^−→205 was used for 2-hydroxy-flutamide and m/z 316 [M-H]^−→273 was used for nilutamide (internal standard). The limit of quantification was 0.50 ng/ml in dog plasma. Calibration samples were prepared by spiking blank plasma samples with 100 μL of solutions of 2-hydroxy-flutamide at different concentrations. […] The accuracies of the analytical runs were calculated as 100*(mean determined concentration in QC sample/spiked concentration) % and the intra-run precisions were calculated as the relative standard deviation (RSD %) of the determined concentrations at each QC level. […]"}},
  "data": [
    {"molecule": "CC(C)(O)C(=O)Nc1ccc([N+](=O)[O-])c(C(F)(F)F)c1", "note": "[2-hydroxy-flutamide]", "values": [
      {"measurement": "androgen dependent side effect", "setting": "[1]; 250 mg implant into bulbourethral gland", "value": "no androgen dependent side effect observed"},
      {"measurement": "macroscopic effect on the androgen dependent tissue (bulbourethral gland)", "setting": "[1]; single intra-gland injection of 250 mg implant", "value": "decreased volume and weight"},
      {"measurement": "Cmax", "setting": "in vivo; Cmax", "value": 835, "unit": "ng/mL"},
      {"measurement": "half-life", "setting": "in vivo; elimination half-life", "value": "1.75 ± 0.2", "unit": "h"},
      {"measurement": "half-life", "setting": "in vivo; t1/2", "value": 1.9, "unit": "h"}
    ]}
  ]
}
